Measured values reported in paper PMC5207038 (ACS chemical biology, 2016).
Entries after “also recorded” stand apart in the source; their conditions may differ. Values belong to the compound of their own block, whether it stands above or below them.

How the values were obtained:
hA1AR = target: T1, hA1AR (Homo sapiens, UniProt P30542); test: Radioligand binding at human A1AR, membranes of CHO cells; details: for inhibition at 10 µM: read-out: % inhibition at 10 µM A1AR; for % inhibition at 30 µM A1AR: radioligand displacement at 30 µM, bases; for inhibition at 30 µM: read-out: % inhibition at 30 µM A1AR
T1 sequence (P30542 1-326): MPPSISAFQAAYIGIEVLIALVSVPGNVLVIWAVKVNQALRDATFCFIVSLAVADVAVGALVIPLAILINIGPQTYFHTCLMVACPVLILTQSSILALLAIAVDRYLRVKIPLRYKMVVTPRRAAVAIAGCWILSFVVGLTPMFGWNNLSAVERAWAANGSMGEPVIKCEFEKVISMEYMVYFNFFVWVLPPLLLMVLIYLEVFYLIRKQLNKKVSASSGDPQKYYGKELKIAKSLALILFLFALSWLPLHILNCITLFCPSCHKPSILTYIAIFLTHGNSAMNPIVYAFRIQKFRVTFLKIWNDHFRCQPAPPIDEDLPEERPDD

hA2AAR = hA2AAR (Homo sapiens, UniProt P29274); test: Radioligand binding at human A2AAR, membranes of HEK293 cells; details: for inhibition at 10 µM: read-out: % inhibition at 10 µM A2AAR; for inhibition at 30 µM: read-out: % inhibition at 30 µM A2AAR; for % inhibition at 30 µM A2AAR: radioligand displacement at 30 µM, bases
A3AR = target: T2, A3AR (Homo sapiens, UniProt P0DMS8)
T2 sequence (P0DMS8 1-318): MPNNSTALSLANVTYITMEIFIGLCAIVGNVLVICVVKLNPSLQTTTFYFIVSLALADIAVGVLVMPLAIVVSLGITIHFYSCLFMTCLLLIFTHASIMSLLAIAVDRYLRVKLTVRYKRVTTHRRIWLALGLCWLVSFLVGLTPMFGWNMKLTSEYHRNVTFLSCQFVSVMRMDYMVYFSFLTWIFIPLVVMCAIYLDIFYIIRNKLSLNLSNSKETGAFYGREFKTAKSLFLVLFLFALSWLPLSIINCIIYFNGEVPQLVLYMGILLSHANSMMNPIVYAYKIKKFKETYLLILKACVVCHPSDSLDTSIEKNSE

A2BAR = target: T3, A2BAR (Homo sapiens, UniProt P29275); test: Functional assay for the A2BAR in CHO cells; type: cell-based; details: for functional activity at A2BAR: inactive refers to 10 µM
T3 sequence (P29275 1-332): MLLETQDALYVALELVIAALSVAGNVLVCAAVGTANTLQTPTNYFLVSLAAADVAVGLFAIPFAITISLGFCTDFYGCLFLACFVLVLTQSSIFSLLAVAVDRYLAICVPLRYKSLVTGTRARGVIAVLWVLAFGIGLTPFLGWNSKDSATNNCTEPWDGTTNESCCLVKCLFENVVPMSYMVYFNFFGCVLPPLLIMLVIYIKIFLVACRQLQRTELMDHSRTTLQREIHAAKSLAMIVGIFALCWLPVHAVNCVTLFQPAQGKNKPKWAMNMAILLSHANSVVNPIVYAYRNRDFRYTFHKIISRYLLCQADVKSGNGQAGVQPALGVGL

A1AR = target: T4, A1AR (Homo sapiens, UniProt P30542); details: cAMP assay
T4 sequence (P30542 1-326): T1 sequence (P30542 1-326)

hA3AR = target: T5, hA3AR (Homo sapiens, UniProt P0DMS8); test: Radioligand binding at human A3AR, membranes of CHO cells; details: for inhibition at 30 µM: read-out: % inhibition at 30 µM A3AR; for % inhibition at 30 µM A3AR: radioligand displacement at 30 µM, bases
T5 sequence (P0DMS8 1-318): T2 sequence (P0DMS8 1-318)

hA2AAR, sequence (P29274 whole entry): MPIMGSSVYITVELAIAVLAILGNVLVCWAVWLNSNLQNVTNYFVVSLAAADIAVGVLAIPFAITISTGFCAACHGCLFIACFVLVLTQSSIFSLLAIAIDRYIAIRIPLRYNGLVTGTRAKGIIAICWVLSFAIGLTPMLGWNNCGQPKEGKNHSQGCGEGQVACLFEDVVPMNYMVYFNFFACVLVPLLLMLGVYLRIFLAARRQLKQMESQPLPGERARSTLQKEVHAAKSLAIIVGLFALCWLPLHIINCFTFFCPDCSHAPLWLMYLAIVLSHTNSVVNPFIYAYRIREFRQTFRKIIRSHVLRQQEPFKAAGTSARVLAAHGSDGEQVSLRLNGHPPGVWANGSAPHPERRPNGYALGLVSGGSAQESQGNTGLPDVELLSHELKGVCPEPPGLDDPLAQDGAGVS

- inhibition at 30 µM (hA2AAR): 40 ± 8%
- inhibition at 30 µM (hA3AR): 36 ± 6%
Structure (SMILES): Cn1c(=O)[nH]c2nc[nH]c2c1=O [Compound 28, 1-methylxanthine]

- % inhibition at 30 µM A1AR (hA1AR): No significant displacement
- inhibition at 30 µM (hA1AR): 11 ± 3%
- % inhibition at 30 µM A2AAR (hA2AAR): No significant displacement
- % inhibition at 30 µM A3AR (hA3AR): No significant displacement
- inhibition at 30 µM (hA3AR): 19 ± 5%
Structure (SMILES): Nc1nc[nH]c(=O)c1Cl [Compound 29, 6-amino-5-chloropyrimidin-4(3H)-one]

- % inhibition at 30 µM A1AR (hA1AR): No significant displacement
- inhibition at 30 µM (hA1AR): 19 ± 8%
- % inhibition at 30 µM A2AAR (hA2AAR): No significant displacement
- inhibition at 30 µM (hA2AAR): 19 ± 8%
- % inhibition at 30 µM A3AR (hA3AR): No significant displacement
Structure (SMILES): Nc1ncnc2[nH]cnc12 [Compound 26, adenine]

- inhibition at 10 µM (hA1AR): 10 ± 3%
- inhibition at 10 µM (hA2AAR): 13 ± 9%
Structure (SMILES): Cc1cn([C@@H]2O[C@H](CO)[C@@H](O)[C@H]2O)c(=O)nc1N [Compound 13, 5-methylcytidine]

Further lines, the compound ahead of its results:

Structure (SMILES): Nc1cccc2c1ncn2[C@@H]1O[C@H](CO)[C@@H](O)[C@H]1O [Compound 7, 1,3-dideazaadenosine]
- inhibition at 10 µM (hA1AR): 15 ± 2%
- % inhibition at 10 µM A2AAR (hA2AAR; radioligand displacement at 10 µM, mean ± standard error, three experiments): completely lost affinity
- inhibition at 10 µM (hA2AAR): 5 ± 2%
- functional activity at A3AR (A3AR; cAMP assay, 10 µM for compound 11): strongly selective agonist

Structure (SMILES): Nc1ccnc2c1ncn2[C@@H]1O[C@H](CO)[C@@H](O)[C@H]1O [Compound 5, 1-deazaadenosine]
- EC50 (A2BAR): 1500 nM
- functional activity at A2BAR (A2BAR): full agonists

Structure (SMILES): Nc1nccc2c1ncn2[C@@H]1O[C@H](CO)[C@@H](O)[C@H]1O [Compound 6, 3-deazaadenosine]
- functional activity at A2BAR (A2BAR): inactive
- functional activity at A1AR (A1AR): no influence on cAMP levels was detected; also recorded: lost the ability to activate the receptor

Structure (SMILES): Nc1nc(=O)[nH]c2c1ncn2[C@@H]1O[C@H](CO)[C@@H](O)[C@H]1O [Compound 9, isoguanosine]
- EC50 (A2BAR): 3100 nM
- functional activity at A2BAR (A2BAR): full agonists

Structure (SMILES): Nc1ncn([C@@H]2O[C@H](CO)[C@@H](O)[C@H]2O)c(=O)n1 [Compound 12, 5-azacytidine]
- inhibition at 10 µM (hA2AAR): 34 ± 2%
- Emax (A3AR; CHO, read-out: maximal efficacy A3AR): ~30%
